Laboratory results taken from PubChem BioAssay AID1963871 (Molecular Pharmacology Branch, DTP, NCI, 2024).

Tested on: KRAS-mutant PDC multicell tumor spheroid viability
Assay: Anticancer human tumor 521955-158-R2-J5-PDC patient-derived pancreatic carcinoma cell line growth inhibition [KRAS2]
Settings: for IC50: curve of first compound; for viability, T/C: stronger effect = lower value; active = viability on the fitted dose curve at most 10% of control; inactive = the rest
From the text: Multicellular complex tumor spheroid response to RAS pathway inhibitors in combination with a targeted agents in patient-derived cell lines with oncogenic KRAS variants from multiple cancer types
A high-throughput screen of multi-cell type tumor spheroids was designed to identify active combinations of targeted small molecules and KRAS pathway inhibitors. Complex spheroids include a stromal component modeled by human endothelial cells (HUVEC) and fibroblasts modeled by human mesenchymal stem cells (MSCs). The concentration ranges selected for each drug and investigational agent were based upon clinically achievable concentrations if the clinical Cmax of the agent was known.
Compounds. The drugs and investigational agents: BI-3406 (NSC825286), BAY-293 (NSC824723), batoprotafib (TNO155; NSC825523), sotorasib (AMG 510; NSC818433), MRTX1257 (NSC819558), elimusertib (BAY 1895344; NSC800525), molibresib (GSK525762; NSC774829), temuterkib (LY3214996; NSC803410), venetoclax (NSC766270), alisertib (NSC759677), olaparib (NSC753686), talazoparib (NSC767125), erdafitinib (NSC781556), ipatasertib (NSC767898), cabozantinib (NSC761068), nintedanib (NSC756659), abemaciclib (NSC768073), docetaxel (NSC628503), trametinib (NSC758246), and sapanisertib (NSC764658) were obtained from the National Cancer Institute (NCI) Developmental Therapeutics Program Chemical Repository. The FDA-approved anticancer drug set is available from the Developmental Therapeutics Program. […] The stock solutions were prepared in dimethyl sulfoxide (DMSO, Sigma-Aldrich, St. Louis, MO, cat. D2650) at 800-fold the tested concentration and stored at -70 degrees C prior to their use. All drugs and investigational agents were tested over a range starting from a high concentration at or near the clinical Cmax and decreasing in half-log increments. If the clinical Cmax for an agent had not been determined, the highest concentration tested was 10 microM.
Cell Culture. All cells were maintained in an incubator at 37 degrees C and 5% CO2 with 95% humidity. The PDC lines were cultured according to standard operating procedures established by the NCI PDMR (https://pdmr.cancer.gov/sops/default.htm). Briefly, all PDCs were thawed and cultured in Matrigel-coated flasks prepared with a working solution of 1X Ham's F-12 nutrient mix, without supplementation (Invitrogen, Waltham, MA, cat. 11765054), 100 U/mL penicillin-streptomycin (Invitrogen, cat. 15140122), and 2.5% Matrigel (Corning Inc., Corning, NY, cat. 354248) for the first three passages. All PDCs were cultured in complete DMEM/F-12 media containing advanced DMEM/F-12 (Invitrogen, cat. 12634028), 4.9% defined fetal bovine serum, heat inactivated (HyClone Laboratories Inc., Logan, UT, cat. SH30070.03HI), 389 ng/mL hydrocortisone (Sigma-Aldrich, cat. H4001), 9.7 ng/mL human EGF recombinant protein (Invitrogen, cat. PHG0313), 23.4 microg/mL adenine (Sigma-Aldrich, cat. A2786), 97.3 U/mL penicillin-streptomycin (Invitrogen, cat. 15140122), 1.9 mM L-glutamine (Invitrogen, cat. 25030081), and 9.7 microM Y-27632 dihydrochloride (Tocris Bioscience, Bristol, United Kingdom, cat. 1254). The PDCs were cultured in complete DMEM/F12 media without 9.7 microM Y-27632 dihydrochloride for at least two passages prior to the screen. The established cell line HOP-62 was cultured in RPMI 1640 medium, HEPES (Invitrogen, cat. 22400105) with 10% defined fetal bovine serum (HyClone Laboratories Inc., cat. SH30070.03) and 2 mM L-glutamine (Invitrogen, cat. 25030081). The pooled donor HUVEC were cultured in endothelial cell growth medium 2 (PromoCell, Heidelberg, Germany, cat. C-22011) and the hMSC were cultured in mesenchymal stem cell growth medium 2 (PromoCell, cat. C-28009). For all experiments, HUVEC and hMSC were used at passages </=5, while the malignant cell lines were used at passages </=15. […]

[1] = second compound 0.1 µM, first compound 0.0316 µM
[2] = second compound 0.316 µM, first compound 0.0316 µM
[3] = second compound 1 µM, first compound 0.0316 µM
[4] = second compound 3.16 µM, first compound 0.0316 µM
[5] = second compound 10 µM, first compound 0.0316 µM
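Also: viability read after seven days of drug exposure.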

CC(=O)Nc1cccc(-n2c(=O)n(C3CC3)c(=O)c3c(Nc4ccc(I)cc4F)n(C)c(=O)c(C)c32)c1 + C=CC(=O)N1CCN(c2nc(=O)n(-c3c(C)ccnc3C(C)C)c3nc(-c4c(O)cccc4F)c(F)cc23)C(C)C1
1 nM: IC50 (second compound 1 µM)
0.444 nM: IC50 (second compound 3.16 µM)
inactive: viability, T/C (second compound 0.1 µM, first compound 0.0001 µM) 84.6% | viability, T/C (second compound 0.1 µM, first compound 0.000316 µM) 52.6% | viability, T/C (second compound 0.1 µM, first compound 0.001 µM) 41.3% | viability, T/C (second compound 0.1 µM, first compound 0.00316 µM) 30.1% | viability, T/C (second compound 0.1 µM, first compound 0.01 µM) 25.8% | viability, T/C [1] 15.7% | viability, T/C (second compound 0.316 µM, first compound 0.0001 µM) 89.7% | viability, T/C (second compound 0.316 µM, first compound 0.000316 µM) 51.9% | viability, T/C (second compound 0.316 µM, first compound 0.001 µM) 38.2% | viability, T/C (second compound 0.316 µM, first compound 0.00316 µM) 31.4% | viability, T/C (second compound 0.316 µM, first compound 0.01 µM) 28.9% | viability, T/C [2] 19.6% | viability, T/C (second compound 1 µM, first compound 0.0001 µM) 87.9% | viability, T/C (second compound 1 µM, first compound 0.000316 µM) 61% | viability, T/C (second compound 1 µM, first compound 0.001 µM) 54.7% | viability, T/C (second compound 1 µM, first compound 0.00316 µM) 36.6% | viability, T/C (second compound 1 µM, first compound 0.01 µM) 32.9% | viability, T/C [3] 24.5% | viability, T/C (second compound 3.16 µM, first compound 0.0001 µM) 63.5% | viability, T/C (second compound 3.16 µM, first compound 0.000316 µM) 51.7% | viability, T/C (second compound 3.16 µM, first compound 0.00316 µM) 33.5% | viability, T/C (second compound 3.16 µM, first compound 0.01 µM) 29.5% | viability, T/C [4] 18.5% | viability, T/C (second compound 10 µM, first compound 0.0001 µM) 50.6% | viability, T/C (second compound 10 µM, first compound 0.000316 µM) 37.1% | viability, T/C (second compound 10 µM, first compound 0.001 µM) 28.8% | viability, T/C (second compound 10 µM, first compound 0.00316 µM) 32.4% | viability, T/C (second compound 10 µM, first compound 0.01 µM) 25% | viability, T/C [5] 17.8%
< 0.1 nM: IC50 (second compound 10 µM)
0.426 nM: IC50 (second compound 0.316 µM)
0.493 nM: IC50 (second compound 0.1 µM)

COc1cc(Nc2ncc3c(n2)-c2ccc(Cl)cc2C(c2c(F)cccc2OC)=NC3)ccc1C(=O)O + C=CC(=O)N1CCN(c2nc(=O)n(-c3c(C)ccnc3C(C)C)c3nc(-c4c(O)cccc4F)c(F)cc23)C(C)C1
inactive: viability, T/C [1] 47.6% | viability, T/C (second compound 0.1 µM, first compound 0.1 µM) 49.3% | viability, T/C (second compound 0.1 µM, first compound 0.316 µM) 43% | viability, T/C (second compound 0.1 µM, first compound 1 µM) 42.2% | viability, T/C (second compound 0.1 µM, first compound 3.16 µM) 46.1% | viability, T/C (second compound 0.1 µM, first compound 10 µM) 38.8% | viability, T/C [2] 43.2% | viability, T/C (second compound 0.316 µM, first compound 0.1 µM) 44.5% | viability, T/C (second compound 0.316 µM, first compound 0.316 µM) 52.2% | viability, T/C (second compound 0.316 µM, first compound 1 µM) 44.5% | viability, T/C (second compound 0.316 µM, first compound 3.16 µM) 44.3% | viability, T/C (second compound 0.316 µM, first compound 10 µM) 36.4% | viability, T/C [3] 48.1% | viability, T/C (second compound 1 µM, first compound 0.1 µM) 44.8% | viability, T/C (second compound 1 µM, first compound 0.316 µM) 43.1% | viability, T/C (second compound 1 µM, first compound 1 µM) 48% | viability, T/C (second compound 1 µM, first compound 10 µM) 32.7% | viability, T/C [4] 47.5% | viability, T/C (second compound 3.16 µM, first compound 0.1 µM) 45.9% | viability, T/C (second compound 3.16 µM, first compound 0.316 µM) 36% | viability, T/C (second compound 3.16 µM, first compound 1 µM) 40.3% | viability, T/C (second compound 3.16 µM, first compound 3.16 µM) 37% | viability, T/C (second compound 3.16 µM, first compound 10 µM) 31.9% | viability, T/C [5] 40.6% | viability, T/C (second compound 10 µM, first compound 0.1 µM) 43.5% | viability, T/C (second compound 10 µM, first compound 0.316 µM) 38.5% | viability, T/C (second compound 10 µM, first compound 1 µM) 37.5% | viability, T/C (second compound 10 µM, first compound 3.16 µM) 34.8% | viability, T/C (second compound 10 µM, first compound 10 µM) 39.6%
< 31.6 nM: IC50 (second compound 0.1 µM) | IC50 (second compound 0.316 µM) | IC50 (second compound 1 µM) | IC50 (second compound 3.16 µM) | IC50 (second compound 10 µM)
